Measurements as given in ChEMBL document CHEMBL1759890, “3,5-Disubstituted-indole-7-carboxamides: the discovery of a novel series of potent, selective inhibitors of IKK-β” (Bioorg Med Chem Lett, 2011).

Experiments:
[1] = biological target: T1, Inhibitor of nuclear factor kappa-B kinase subunit beta (Homo sapiens, UniProt O14920); assay: Inhibition of IKK-beta
T1 sequence (O14920 whole entry): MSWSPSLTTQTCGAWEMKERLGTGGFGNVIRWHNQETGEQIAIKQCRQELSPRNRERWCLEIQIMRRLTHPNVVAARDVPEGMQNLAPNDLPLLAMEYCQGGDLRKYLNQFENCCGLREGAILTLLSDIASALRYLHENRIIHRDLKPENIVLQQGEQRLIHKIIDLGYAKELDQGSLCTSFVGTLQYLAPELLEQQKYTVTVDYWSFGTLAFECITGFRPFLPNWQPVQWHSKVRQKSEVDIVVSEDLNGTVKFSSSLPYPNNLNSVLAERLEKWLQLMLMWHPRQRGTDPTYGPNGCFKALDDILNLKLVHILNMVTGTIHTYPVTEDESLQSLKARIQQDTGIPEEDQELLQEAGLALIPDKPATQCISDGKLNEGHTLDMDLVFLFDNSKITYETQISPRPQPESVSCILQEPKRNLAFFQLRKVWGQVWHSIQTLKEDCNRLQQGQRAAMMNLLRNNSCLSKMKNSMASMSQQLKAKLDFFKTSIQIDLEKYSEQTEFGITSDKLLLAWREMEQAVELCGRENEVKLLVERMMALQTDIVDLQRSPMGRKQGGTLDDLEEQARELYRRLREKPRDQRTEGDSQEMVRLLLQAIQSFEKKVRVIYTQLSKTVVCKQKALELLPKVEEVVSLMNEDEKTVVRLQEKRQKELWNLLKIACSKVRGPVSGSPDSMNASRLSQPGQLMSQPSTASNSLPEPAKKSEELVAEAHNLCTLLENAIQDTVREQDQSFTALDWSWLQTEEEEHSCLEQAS

[2] = biological target: T2, Serine/threonine-protein kinase TBK1 (Homo sapiens, UniProt Q9UHD2); assay: Inhibition of TBK-1
T2 sequence (Q9UHD2 whole entry): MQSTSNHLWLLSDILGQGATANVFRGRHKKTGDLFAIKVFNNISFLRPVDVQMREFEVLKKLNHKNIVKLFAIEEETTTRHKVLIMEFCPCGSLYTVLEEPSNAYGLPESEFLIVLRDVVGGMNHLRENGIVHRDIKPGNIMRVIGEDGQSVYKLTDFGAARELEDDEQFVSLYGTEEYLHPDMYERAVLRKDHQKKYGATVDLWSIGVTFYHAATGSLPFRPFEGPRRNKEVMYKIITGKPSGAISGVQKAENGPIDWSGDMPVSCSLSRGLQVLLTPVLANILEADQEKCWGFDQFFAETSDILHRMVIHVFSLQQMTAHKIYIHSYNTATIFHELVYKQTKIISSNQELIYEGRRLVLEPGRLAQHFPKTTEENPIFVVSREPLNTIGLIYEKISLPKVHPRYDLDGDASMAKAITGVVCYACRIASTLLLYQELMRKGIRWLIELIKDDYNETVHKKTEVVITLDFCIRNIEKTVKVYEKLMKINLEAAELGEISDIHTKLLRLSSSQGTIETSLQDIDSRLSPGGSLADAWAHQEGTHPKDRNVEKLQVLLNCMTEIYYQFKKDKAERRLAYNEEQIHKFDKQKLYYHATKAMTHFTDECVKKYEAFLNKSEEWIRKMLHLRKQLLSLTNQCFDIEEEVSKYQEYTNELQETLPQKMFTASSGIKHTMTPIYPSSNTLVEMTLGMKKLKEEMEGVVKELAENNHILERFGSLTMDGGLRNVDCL

[3] = biological target: T3, Receptor-type tyrosine-protein kinase FLT3 (Homo sapiens, UniProt P36888); assay: Binding affinity to FLT3 assessed as dissociation constant
T3 sequence (P36888 whole entry): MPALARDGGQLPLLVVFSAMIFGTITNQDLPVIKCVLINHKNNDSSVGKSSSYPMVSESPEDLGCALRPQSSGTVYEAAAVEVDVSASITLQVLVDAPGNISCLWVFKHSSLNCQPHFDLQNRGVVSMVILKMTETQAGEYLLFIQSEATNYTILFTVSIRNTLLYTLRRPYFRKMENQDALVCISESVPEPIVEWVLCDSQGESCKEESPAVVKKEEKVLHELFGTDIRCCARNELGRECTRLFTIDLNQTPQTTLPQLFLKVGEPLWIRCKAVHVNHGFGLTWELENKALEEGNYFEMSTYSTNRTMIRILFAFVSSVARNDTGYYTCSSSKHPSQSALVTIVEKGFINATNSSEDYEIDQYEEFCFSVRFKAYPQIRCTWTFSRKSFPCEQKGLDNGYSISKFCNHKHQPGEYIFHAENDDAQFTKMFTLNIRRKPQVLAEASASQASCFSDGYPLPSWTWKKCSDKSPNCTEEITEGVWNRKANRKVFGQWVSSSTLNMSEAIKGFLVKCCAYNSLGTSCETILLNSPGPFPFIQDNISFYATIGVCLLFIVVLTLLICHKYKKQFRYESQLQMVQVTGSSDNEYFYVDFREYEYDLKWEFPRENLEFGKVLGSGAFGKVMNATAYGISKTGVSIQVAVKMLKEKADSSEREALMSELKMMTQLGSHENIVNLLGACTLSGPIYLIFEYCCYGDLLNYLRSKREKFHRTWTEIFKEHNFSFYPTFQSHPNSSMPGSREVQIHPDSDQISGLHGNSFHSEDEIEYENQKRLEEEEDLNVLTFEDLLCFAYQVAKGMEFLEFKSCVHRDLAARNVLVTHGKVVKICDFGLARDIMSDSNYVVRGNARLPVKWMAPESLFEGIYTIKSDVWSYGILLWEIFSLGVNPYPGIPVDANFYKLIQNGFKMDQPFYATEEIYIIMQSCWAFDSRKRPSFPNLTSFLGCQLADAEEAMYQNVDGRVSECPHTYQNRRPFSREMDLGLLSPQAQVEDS

## CCCS(=O)(=O)N1CCC(c2c[nH]c3c(C(N)=O)cc(-c4ccccc4)cc23)CC1
[1]
  IC50: 0.0126 µM
[2]
  IC50: > 3.16 µM
[3]
  Kd: 1.26 µM
